Experimental data published in ChEMBL document CHEMBL5385841, “Recent advances in gout drugs” (Eur J Med Chem, 2023).

Legend:
[1] = target: Xanthine dehydrogenase/oxidase (Homo sapiens, UniProt P47989); assay: Inhibition of XO (unknown origin)
[2] = Oral bioavailability in rat relative to urinary excretion; assay type: ADME, organism-based; conditions: urine
[3] = target: T1, Broad substrate specificity ATP-binding cassette transporter ABCG2 (Homo sapiens, UniProt Q9UNQ0); assay: Inhibition of ABCG2 (unknown origin)
T1 sequence (Q9UNQ0 whole entry): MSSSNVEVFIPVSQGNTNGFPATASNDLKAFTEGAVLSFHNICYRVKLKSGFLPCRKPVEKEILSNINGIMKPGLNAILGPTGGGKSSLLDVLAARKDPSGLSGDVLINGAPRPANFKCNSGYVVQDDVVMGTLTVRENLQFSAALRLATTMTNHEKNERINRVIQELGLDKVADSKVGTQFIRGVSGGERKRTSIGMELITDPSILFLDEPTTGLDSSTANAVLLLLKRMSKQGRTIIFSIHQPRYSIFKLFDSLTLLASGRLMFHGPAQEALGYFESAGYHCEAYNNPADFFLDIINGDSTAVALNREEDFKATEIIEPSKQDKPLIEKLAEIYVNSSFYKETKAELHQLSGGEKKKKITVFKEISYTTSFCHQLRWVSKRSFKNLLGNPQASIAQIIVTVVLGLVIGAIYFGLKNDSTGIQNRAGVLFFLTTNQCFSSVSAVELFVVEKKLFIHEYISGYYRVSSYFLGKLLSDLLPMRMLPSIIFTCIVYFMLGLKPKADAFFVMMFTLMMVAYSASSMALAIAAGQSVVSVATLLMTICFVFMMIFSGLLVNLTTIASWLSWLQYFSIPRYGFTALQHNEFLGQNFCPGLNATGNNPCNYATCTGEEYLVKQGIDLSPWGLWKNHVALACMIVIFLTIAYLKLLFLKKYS

Xanthine dehydrogenase/oxidase, sequence (P47989 whole entry): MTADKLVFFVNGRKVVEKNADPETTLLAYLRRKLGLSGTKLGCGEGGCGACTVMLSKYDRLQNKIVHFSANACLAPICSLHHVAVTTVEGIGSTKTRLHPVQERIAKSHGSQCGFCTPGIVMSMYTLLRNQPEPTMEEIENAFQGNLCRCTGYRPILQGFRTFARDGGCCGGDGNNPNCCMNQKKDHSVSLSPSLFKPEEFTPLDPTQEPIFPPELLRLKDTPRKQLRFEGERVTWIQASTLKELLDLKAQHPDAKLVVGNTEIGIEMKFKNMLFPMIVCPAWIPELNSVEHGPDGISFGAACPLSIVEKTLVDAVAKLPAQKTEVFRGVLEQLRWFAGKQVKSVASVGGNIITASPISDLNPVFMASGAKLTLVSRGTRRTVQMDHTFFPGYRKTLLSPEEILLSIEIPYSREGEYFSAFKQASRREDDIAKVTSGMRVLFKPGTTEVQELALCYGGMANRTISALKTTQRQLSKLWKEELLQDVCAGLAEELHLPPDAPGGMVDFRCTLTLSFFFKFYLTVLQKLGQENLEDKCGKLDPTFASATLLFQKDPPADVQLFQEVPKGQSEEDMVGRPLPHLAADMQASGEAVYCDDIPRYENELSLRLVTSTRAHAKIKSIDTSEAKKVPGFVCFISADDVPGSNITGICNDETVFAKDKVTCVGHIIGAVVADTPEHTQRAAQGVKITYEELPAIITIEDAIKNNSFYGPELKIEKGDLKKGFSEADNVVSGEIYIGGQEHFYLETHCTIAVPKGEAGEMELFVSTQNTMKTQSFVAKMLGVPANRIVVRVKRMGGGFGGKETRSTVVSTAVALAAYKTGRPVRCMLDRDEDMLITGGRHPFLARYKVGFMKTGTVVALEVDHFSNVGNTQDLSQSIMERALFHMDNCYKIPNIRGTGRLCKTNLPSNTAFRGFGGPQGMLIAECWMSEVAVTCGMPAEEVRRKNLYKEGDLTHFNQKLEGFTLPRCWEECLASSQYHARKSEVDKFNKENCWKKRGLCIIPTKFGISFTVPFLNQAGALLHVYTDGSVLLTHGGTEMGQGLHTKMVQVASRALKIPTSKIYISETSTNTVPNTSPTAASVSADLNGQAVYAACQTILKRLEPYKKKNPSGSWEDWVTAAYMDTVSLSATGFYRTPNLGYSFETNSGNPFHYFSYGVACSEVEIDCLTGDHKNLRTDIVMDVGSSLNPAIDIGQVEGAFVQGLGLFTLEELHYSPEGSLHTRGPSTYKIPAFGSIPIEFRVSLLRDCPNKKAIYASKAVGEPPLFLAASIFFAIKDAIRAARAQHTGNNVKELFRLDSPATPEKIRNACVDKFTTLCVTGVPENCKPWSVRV

IC50 [1] [µM]	Compound	further results
5.3	CC(=O)N1N=C(c2ccco2)CC1c1ccncc1 (centres undefined)	
21.7	N#Cc1ccc(COc2cc(O)cc3oc4cc(O)c(O)cc4c(=O)c23)cc1	
0.62	O=c1cc(-c2ccc(F)cc2)oc2c1ccc1ccccc12	
	O=C(O)[C@H]1O[C@@H](Oc2c(Cl)cc(C(=O)N3CS(=O)(=O)c4ccccc43)cc2Cl)[C@H](O)[C@@H](O)[C@@H]1O	bioavailability [2]: 44.3%
	O=C(c1cc(Cl)c(OS(=O)(=O)O)c(Cl)c1)N1CS(=O)(=O)c2ccccc21	bioavailability [2]: 20%
6	Cc1nc(-c2ccc(OCC(C)(C)C)c(C#N)c2)n(O)c1C(=O)O	
	O=C(c1cc(Cl)c(O)c(Cl)c1)N1CS(=O)(=O)c2ccccc21 [DOTINURAD]	IC50 [3]: 0.0372 µM
25	Cc1nc(-c2ccc(OCC(C)C)c(C#N)c2)sc1C(=O)O [FEBUXOSTAT]	

Compound	IC50 [1] [µM]	further results
N#CC1=C(N)Oc2c(c(=O)oc3ccccc23)C1c1cccs1 (centres undefined)	0.59	
